Among the test systems are 786-0 renal; A498 renal; HCT-116 colon; HL-60(TB) leukemia; LOX IMVI melanoma; OVCAR-5 ovarian; SW-620 colon; U251 CNS; MDA-MB-435; PC-3 prostate.
What all share (test): inhibition of tumour cell growth, NCI panel, 48 h

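Compound exposure: 48 hours, 5 concentrations, 96-well plates. Definition used: TGI = concentration required for complete inhibition of growth.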

Turning to `O=C1CCCCCCCCCCC1CN1CCCCC1` (stereo unspecified), the TGI in the experiment with 786-0 renal, with A498 renal, in the experiment on HCT-116 colon, in the experiment with HL-60(TB) leukemia, in the experiment with LOX IMVI melanoma and in the experiment with OVCAR-5 ovarian was greater than 100 µM in each case. For the same compound, the TGI with SW-620 colon and with U251 CNS was greater than 100 µM in each case.
Take `CC(=O)OC[C@@H](OC(C)=O)[C@H](OC(C)=O)[C@@H]1OC(C)(C)O[C@@H]1C1SCCCS1`: the TGI in the experiment on 786-0 renal, in the experiment with A498 renal, in the experiment with HCT-116 colon, in the experiment with LOX IMVI melanoma, in the experiment on MDA-MB-435 and with OVCAR-5 ovarian was greater than 100 µM in each case. Besides, the TGI in the experiment on PC-3 prostate, in the experiment on SW-620 colon and with U251 CNS was greater than 100 µM in each case.
Regarding `O=C(NCc1cccc2ccccc12)N/N=C\c1ccc(Cl)cc1`, the TGI in the experiment with 786-0 renal, in the experiment with HCT-116 colon, in the experiment on HL-60(TB) leukemia, in the experiment on LOX IMVI melanoma, with MDA-MB-435 and with OVCAR-5 ovarian was greater than 100 µM in each case. Also, the TGI in the experiment with PC-3 prostate, in the experiment with SW-620 colon and in the experiment with U251 CNS was greater than 100 µM in each case.
In the case of `O=S(=O)(/N=C(\NO)Nc1ccc(Cl)cc1)c1cccc2nsnc12`, the TGI in the experiment with 786-0 renal was 80.7 µM; with HCT-116 colon it was 85.4 µM; in the experiment with HL-60(TB) leukemia, 39.1 µM; in the experiment on LOX IMVI melanoma, 61.4 µM; in the experiment with MDA-MB-435, greater than 100 µM; in the experiment on OVCAR-5 ovarian, 75.5 µM. Also, the TGI with PC-3 prostate, in the experiment on SW-620 colon and with U251 CNS was greater than 100 µM each time.
For `COc1ccc(CN=C(N)N)c2ccccc12`, the TGI is greater than 100 µM in the experiment on 786-0 renal; greater than 100 µM in the experiment with HCT-116 colon; 91 µM in the experiment with HL-60(TB) leukemia; greater than 100 µM with LOX IMVI melanoma; 73.4 µM with OVCAR-5 ovarian; greater than 100 µM in the experiment with PC-3 prostate. Further, the TGI was greater than 100 µM in the experiment with SW-620 colon and 74.7 µM with U251 CNS.
In the case of `COc1ccc(N2C(=O)C3c4[nH]c5ccc(F)cc5c4C4CCC(c5ccccc5)CC4C3C2=O)cc1` (stereo unspecified), the TGI in the experiment on 786-0 renal was 12.1 µM; with A498 renal, 34.3 µM; in the experiment with HCT-116 colon, greater than 100 µM; in the experiment with LOX IMVI melanoma, greater than 100 µM; in the experiment with MDA-MB-435 it was 53.9 µM; in the experiment with OVCAR-5 ovarian, 47.8 µM. Besides, the TGI was 35.2 µM with PC-3 prostate, 59.9 µM in the experiment on SW-620 colon and 27.1 µM in the experiment with U251 CNS.
With `C=C1C(=O)O[C@@H]2C=C(C)C3=CC(=O)[C@](C)(C[C@H](OC(=O)/C(C)=C\C)[C@@H]12)O3`, the TGI with 786-0 renal came to 1.54 µM; in the experiment on HCT-116 colon it was 0.868 µM; in the experiment with HL-60(TB) leukemia it was 0.563 µM; in the experiment with LOX IMVI melanoma, 0.979 µM; in the experiment on MDA-MB-435 it was 3.74 µM; in the experiment with OVCAR-5 ovarian, 3.86 µM. The TGI is 5.01 µM in the experiment on PC-3 prostate, 1.33 µM in the experiment with SW-620 colon and 4.85 µM with U251 CNS.
Regarding `COc1cc2cc(C(=O)N3CC(CCl)c4c3cc(N)c3ccccc43)[nH]c2c(OC)c1OC` (stereo unspecified), the TGI is 0.0102 µM with 786-0 renal; less than 0.01 µM in the experiment on A498 renal; 1.08 µM in the experiment on HCT-116 colon; 0.0103 µM with LOX IMVI melanoma; less than 0.0114 µM with PC-3 prostate; greater than 100 µM in the experiment with SW-620 colon. In addition, the TGI in the experiment with U251 CNS amounted to 0.0998 µM.
As for `NNC(=O)c1nnn(CCc2ccccc2)c1C(=O)NN`, the TGI in the experiment with 786-0 renal, with HCT-116 colon, in the experiment with HL-60(TB) leukemia, in the experiment with LOX IMVI melanoma, in the experiment with MDA-MB-435 and with OVCAR-5 ovarian was greater than 100 µM throughout. The TGI in the experiment on PC-3 prostate and with U251 CNS was greater than 100 µM in each case.
Regarding `Cc1cc(=O)oc2c(C)c(OCCCOc3ccc4c(C)cc(=O)oc4c3C)ccc12`, the TGI in the experiment with 786-0 renal, in the experiment on A498 renal, with HCT-116 colon, in the experiment with HL-60(TB) leukemia, in the experiment on LOX IMVI melanoma and in the experiment with OVCAR-5 ovarian was greater than 100 µM each time. The TGI in the experiment with SW-620 colon and in the experiment with U251 CNS was greater than 100 µM in each case.
For the compound `COC(=O)[C@H](Cc1c[nH]c2ccccc12)NC(=O)c1ccc(CNC(=O)/C=C/c2cccc(Oc3ccccc3)c2)cc1`, the TGI in the experiment on 786-0 renal is greater than 100 µM; in the experiment with A498 renal, greater than 100 µM; in the experiment on HCT-116 colon, greater than 100 µM; in the experiment on MDA-MB-435 it was 27.8 µM; with OVCAR-5 ovarian, greater than 100 µM; with PC-3 prostate it was greater than 100 µM. Further, the TGI in the experiment on SW-620 colon and in the experiment on U251 CNS was greater than 100 µM in each case.
With `O=CC12C3CCC1C2C(=O)C3` (stereo unspecified), the TGI in the experiment on 786-0 renal, in the experiment with HCT-116 colon, in the experiment on LOX IMVI melanoma, with MDA-MB-435, in the experiment with OVCAR-5 ovarian and in the experiment with PC-3 prostate was greater than 100 µM each time. In addition, the TGI in the experiment on SW-620 colon and with U251 CNS was greater than 100 µM in each case.
As for `Cc1c(C(=O)/C=C/c2ccccc2O)c(=O)n(-c2ccccc2)n1C`, the TGI was 70 µM with 786-0 renal; 90 µM in the experiment with A498 renal; 34.6 µM with HCT-116 colon; 45.9 µM in the experiment with LOX IMVI melanoma; greater than 100 µM in the experiment on OVCAR-5 ovarian; 35.5 µM with SW-620 colon. In the experiment with U251 CNS, this compound had a TGI of 35.9 µM.
For `FC1C2=C(SC1(F)F)C1CCC2C1` (stereo unspecified), the TGI in the experiment with 786-0 renal, in the experiment with HCT-116 colon, in the experiment on HL-60(TB) leukemia, in the experiment with LOX IMVI melanoma, with MDA-MB-435 and with OVCAR-5 ovarian was greater than 100 µM each time. Besides, the TGI with PC-3 prostate and with SW-620 colon was greater than 100 µM in each case.
`COc1ccc(C2SCC(=O)N2NC(=O)c2ccc(NC(C)=O)cc2)cc1` (stereo unspecified): the TGI with 786-0 renal, in the experiment on A498 renal, in the experiment on HCT-116 colon, in the experiment on MDA-MB-435, in the experiment on OVCAR-5 ovarian and in the experiment with SW-620 colon was greater than 100 µM throughout. In the experiment with U251 CNS, this compound yielded a TGI greater than 100 µM.
For the compound `CN(c1ccccc1Cl)S(=O)(=O)c1ccc([N+](=O)[O-])cc1`, the TGI in the experiment with 786-0 renal, in the experiment with HCT-116 colon, in the experiment with HL-60(TB) leukemia, in the experiment on LOX IMVI melanoma, in the experiment on MDA-MB-435 and in the experiment with OVCAR-5 ovarian was greater than 100 µM each time. Besides, the TGI with PC-3 prostate, in the experiment on SW-620 colon and in the experiment on U251 CNS was greater than 100 µM each time.
For the compound `Cc1ccc(/C(O)=C/c2nc3ccccc3s/c2=N/CS(=O)(=O)c2ccc(C)cc2)cc1`, the TGI in the experiment on 786-0 renal, with HCT-116 colon, in the experiment on HL-60(TB) leukemia, with LOX IMVI melanoma, with MDA-MB-435 and in the experiment on OVCAR-5 ovarian was greater than 10 µM each time. Further, the TGI in the experiment with PC-3 prostate, in the experiment with SW-620 colon and with U251 CNS was greater than 10 µM each time.
With `CC1C2(C)OC(=N)C(C#N)(C(c3cccc([N+](=O)[O-])c3)O2)C1(C#N)C#N` (stereo unspecified), the TGI with 786-0 renal was 45.2 µM; in the experiment on A498 renal it was greater than 100 µM; with HCT-116 colon, 40.4 µM; in the experiment on HL-60(TB) leukemia, 39 µM; with LOX IMVI melanoma, 36 µM; in the experiment on OVCAR-5 ovarian it was greater than 100 µM. Besides, the TGI in the experiment with PC-3 prostate is greater than 100 µM; in the experiment on SW-620 colon it was 31.3 µM; in the experiment on U251 CNS it was 53.8 µM.
As for `Cc1cc(S(=O)(=O)Nc2nc(N)nc(N(C)C)n2)c(SCC(=O)O)cc1Cl`, the TGI with 786-0 renal, with A498 renal, with HCT-116 colon, in the experiment with HL-60(TB) leukemia, in the experiment with LOX IMVI melanoma and with OVCAR-5 ovarian was greater than 10 µM each time. Besides, the TGI in the experiment with PC-3 prostate, in the experiment with SW-620 colon and in the experiment on U251 CNS was greater than 10 µM each time.
`CC(C)(C)C(=O)OC12/C(=N/O)CCCCCC1c1ccccc12` (stereo unspecified): the TGI came to 31 µM in the experiment with 786-0 renal; 30.5 µM in the experiment on A498 renal; 27.5 µM in the experiment on HCT-116 colon; 45.5 µM in the experiment on HL-60(TB) leukemia; 28.8 µM in the experiment with LOX IMVI melanoma; 28.7 µM in the experiment on OVCAR-5 ovarian. In addition, the TGI in the experiment with SW-620 colon turned out to be 34.2 µM; with U251 CNS, 33.1 µM.
Regarding `O=C1OC(=O)c2cc(S(=O)(=O)c3ccc4c(c3)C(=O)OC4=O)ccc21`, the TGI with 786-0 renal, in the experiment with HCT-116 colon, with LOX IMVI melanoma, with MDA-MB-435, in the experiment on OVCAR-5 ovarian and in the experiment with PC-3 prostate was greater than 100 µM in each case. Moreover, the TGI in the experiment on SW-620 colon and with U251 CNS was greater than 100 µM throughout.
Take `Cc1csc(/N=C\c2c(O)c3ccccc3oc2=O)n1`: the TGI in the experiment on 786-0 renal, with HCT-116 colon, with LOX IMVI melanoma, with MDA-MB-435, in the experiment on OVCAR-5 ovarian and in the experiment on PC-3 prostate was greater than 100 µM in each case. Further, the TGI with SW-620 colon and in the experiment on U251 CNS was greater than 100 µM in each case.
As for `COC(=O)c1cnc(Cl)cn1`, the TGI in the experiment on 786-0 renal, in the experiment on HCT-116 colon, in the experiment on HL-60(TB) leukemia, in the experiment with LOX IMVI melanoma, in the experiment on MDA-MB-435 and in the experiment with OVCAR-5 ovarian was greater than 100 µM in each case. Besides, the TGI with PC-3 prostate, with SW-620 colon and in the experiment on U251 CNS was greater than 100 µM each time.
